Assay: gradient 5% acetonitrile 3 min, to 50% in 2 min, to 85% in 15 min, held 3 min, 100 µL/min
Conditions: column: Zorbax Extend-C18 2.1 x 50 mm; eluents: water / acetonitrile, 0.1% formic acid
Summary of the method: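 Pure standards were analyzed in mixtures of ~100 molecules using HPLC coupled to a quadrupole time-of-flight mass spectrometer, in both positive and negative ionization mode. Separation used a Zorbax Extend-C18 column (2.1 × 50 mm, 1.8 μm) at 100 μL/min, with water and acetonitrile each containing 0.1% formic acid. Dead and dwell volumes were 40 μL and 900 μL, and data were collected over 3 months. Retention time was read from computationally picked adduct peaks, each inspected manually.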

| Structure (SMILES) | RP-LC retention time |
| --- | --- |
| O=C(Cn1cccc1-c1nnc(-c2ccccc2)o1)N1CCN(c2ccc(F)cc2)CC1 | 996 s |
| Cc1noc([C@@H]2CN(C(=O)c3cscn3)C[C@H]2C(N)=O)n1 | 556 s |
| O=C(NCc1csc(-c2ccccc2)n1)C1CCN(S(=O)(=O)c2cccc3nsnc23)CC1 | 886 s |
| c1ccc(N2CCN(c3ccc4nncn4n3)CC2)nc1 | 537 s |
| Cc1ccc(C)c(NC(=O)C2CCN(S(C)(=O)=O)c3cc(Cl)ccc3O2)c1 (stereo not given) | 935 s |
| O=C(Cn1cnc2nc3c(cc2c1=O)CCCC3)Nc1ccc(Cl)cc1 | 761 s |
| CC(=O)N(C)CC(=O)N1CCN(c2cc(C)nc(Nc3ccc(C)cc3)n2)CC1 | 564 s |
| CSc1ccc(CNC(=O)C2CCN(c3nnc(-c4ccccc4)o3)CC2)cc1 | 846 s |
| CCc1cccc(C)c1NC(=O)Cn1c(=O)n(-c2ccc(C)cc2)c(=O)c2c1cc(C)n2C | 909 s |
| CSc1cccc(NC(=O)NCCc2cn(C)c3ncccc23)c1 | 716 s |
| CSc1cccc(NC(=O)N2CCC(c3cc(=O)n4nccc4n3C)CC2)c1 | 679 s |
| Cc1[nH]c2ccccc2c1C(=O)C(=O)N(C)Cc1ccccc1 | 805 s |
| O=C(NCc1ccco1)C(=O)NCC1OCCN1S(=O)(=O)c1ccc([N+](=O)[O-])cc1 (stereo not given) | 745 s |
| CS(=O)(=O)N1CCC(C(=O)Nc2ccc(C(F)(F)F)cc2)Oc2ccccc21 (stereo not given) | 1030 s |
| CCn1nc2ccc(S(=O)(=O)N3CCOCC3)cn2c1=O | 645 s |
| Brc1ccc(NCc2nnc(-c3ccccc3)o2)cc1 | 899 s |
| O=C(c1cccnc1)N1CCN(C(=O)c2nnn3c2COC(c2ccc(Cl)cc2)C3)CC1 (stereo not given) | 692 s |
| CCC(CC)NC(=O)C1(CCO)CCN(Cc2ccccc2)C1 (stereo not given) | 618 s |
| CCCn1cc(C(=O)NCCC(C)C)c2nn(-c3ccccc3)c(=O)c-2c1 | 968 s |
| Cc1ccc(Nc2nc(-c3ccc(I)cc3)cs2)cc1C | 1120 s |
| CCCn1c(=O)c(C)nc2cc(-c3noc(-c4ccc5c(c4)OCO5)n3)ccc21 | 1150 s |
| CCC(=O)N(C1CCOCC1)C1CCN(S(=O)(=O)c2ccc(F)cc2F)CC1 | 998 s |
| Cc1cc(=O)n(CC(=O)Nc2cccc(C#N)c2)c(N2CCOCC2)n1 | 604 s |

| Structure (SMILES) | RP-LC retention time |
| --- | --- |
| c1cc(CN2CCN(c3cnn4c(C5CC5)nnc4c3)CC2)cs1 | 558 s |
| CCn1cc(S(=O)(=O)N2CCC[C@H]2c2nc(-c3ccc(F)cc3)n[nH]2)cn1 | 714 s |
| CCCCc1ccc(NC(=O)N2CC(c3nc(C)no3)C3(CCOCC3)C2)cc1 (stereo not given) | 914 s |
| CC(C)CCNC(=O)c1nnc(-c2ccc(S(=O)(=O)N(C)C)cc2)o1 | 877 s |
| CCc1cccc(C)c1Nc1c(-c2ccc(SC)cc2)nc2cnccn12 | 1070 s |
| COC(=O)c1c(NCC2CC2)c2cccc(Cl)c2[nH]c1=O | 757 s |
| Cc1cc(C)nc(SCC(=O)Nc2nc(-c3ccccc3)cs2)n1 | 1020 s |
| CCOC(=O)CNC(=O)N(C)CCc1noc(-c2ccc(Cl)cc2)n1 | 789 s |
| COc1ccc(C(=O)Nc2ccc(N3CCN(C4CCCC4)C3=O)nc2)c(OC)c1 | 829 s |
| CN(C)C(=O)c1cc2c(s1)CCC(C(=O)NCCc1cccnc1)C2 (stereo not given) | 543 s |
| COc1ccc(CNC(=O)Cc2csc3nc(-c4ccc(OC)c(OC)c4)cn23)cc1OC | 648 s |
| Cc1ccc2nc(-c3cccc(Br)c3)c(Nc3ccccc3C)n2c1 | 849 s |
| O=C(c1ccccc1OCC1CCCNC1)N1CCOCC1 (stereo not given) | 576 s |
| CCS(=O)(=O)N1CCC2(CC1)C(OC)CN2c1cccc(F)c1 (stereo not given) | 965 s |
| CS(=O)(=O)N1CCC(CNC(=O)CCSc2ccccc2)CC1 | 692 s |
| CCCS(=O)(=O)c1nc2ccc(NS(=O)(=O)c3cc(C)cc(C)c3)cc2s1 | 998 s |
| COc1ccc(C(=O)NCc2c(C)noc2C)c(OC)c1 | 693 s |
| Cc1cccc(-n2c(=O)c3c(cc(C)n3C)n(CC(=O)Nc3ccc(Br)cc3F)c2=O)c1 | 963 s |
| COc1ccc(CCN2CC(C(=O)N3CCN(C(C)C)CC3)CC2=O)cc1OC (stereo not given) | 553 s |
| O=C(Cn1c(=O)c(CCC(=O)NC2CC2)nc2ccccc21)NCc1ccccc1 | 693 s |
| CN(C)C(=O)Cn1c(=O)c2cccn2c2ccccc21 | 666 s |
| Cc1cc(N2CCN(C(=O)c3ccc(F)cc3)CC2)nc(N2CCOCC2)n1 | 608 s |
| O=C(c1ccco1)N1CCc2nc(OCC3CC3)ccc2C1 | 821 s |

| Structure (SMILES) | RP-LC retention time |
| --- | --- |
| Cc1cccc(NC(=O)Nc2cnc3c(c2)CCC3)c1 | 578 s |
| c1ccc(-c2noc(CN3CCCCC3c3nc(C4CC4)no3)n2)nc1 (stereo not given) | 784 s |
| Cc1ccc(Cn2nc3ccc(S(=O)(=O)N4CCC(C)CC4)cn3c2=O)cc1 | 1060 s |
| COc1ncccc1CNC(=O)CCc1c(C)noc1C | 556 s |
| COc1ccc(Cl)cc1NC(=O)C1CCN(S(=O)(=O)c2ccc3c(c2)NC(=O)CO3)CC1 | 880 s |
| CCC(=O)NCc1nc2c(n1CC)CN(S(=O)(=O)c1ccc(C)c(C)c1)CC2 | 583 s |
| CCn1c(=O)c(N2CCN(C(=O)Nc3ccccc3Br)CC2)nc2ccccc21 | 1010 s |
| CCc1nc2ccccc2n1CC(O)COc1ccc(C)c(C)c1 (stereo not given) | 696 s |
| Cn1c(C(=O)N2CCCC(C(=O)N3CCN(c4ccccc4)CC3)C2)cc2sccc21 (stereo not given) | 892 s |
| Cc1cc(N2CCN(c3ccccn3)CC2)n2nc(-c3ccc(Cl)cc3)c(C)c2n1 | 649 s |
| COCCn1cc2c3c(cccc31)CN(C(=O)Nc1ccc(OC)c(F)c1)CC2 | 891 s |
| CC(NC(=O)c1ccc(-c2cccs2)nc1)c1ccccc1 (stereo not given) | 910 s |
| O=C(NC1CCCCC1)c1nc(-c2cn(-c3ccc(F)cc3)nn2)no1 | 938 s |
| O=C1NCCCn2cc(S(=O)(=O)Nc3ccc(F)c(F)c3)cc21 | 676 s |
| CCOc1ccc(-c2nc(C3CC(=O)N(c4ccc(F)c(Cl)c4)C3)no2)cc1OCC (stereo not given) | 1150 s |
| CN1C(=O)c2cccn2CC1C(=O)NCc1nc2ccccc2n1C (stereo not given) | 566 s |
| CN1C(=O)c2cc(S(=O)(=O)Nc3ccccc3)ccc2Oc2cccnc21 | 862 s |
| CCN1CCN(CCCNC(=O)Cc2c(C(=O)O)c(C)cn2C)CC1 | 549 s |
| Cc1ccc(-c2csc(-n3nc(C)c(CC(=O)Nc4ccc(C)c(C)c4)c3C)n2)cc1 | 1310 s |
| Cc1ccc(-c2cc3n(n2)CCCN(C(=O)Cc2ccccc2F)C3)cc1 | 939 s |
| CCOc1ccc2c(n1)CCN(C(=O)Nc1cc(C)ccc1C)C2 | 862 s |
| N#Cc1ccc(C(=O)N2CCCC2c2nc(-c3ccccc3)no2)cc1 (stereo not given) | 925 s |
| Cc1cc(F)ccc1NC(=O)Cc1nnc(-c2cnccn2)o1 | 659 s |

| Structure (SMILES) | RP-LC retention time |
| --- | --- |
| Cc1nn(-c2ccc(F)cc2)c2nc(N3CCCC(C(=O)NCc4cccc(F)c4)C3)sc12 (stereo not given) | 1130 s |
| O=c1cc(-c2ccncc2)nc(N2CCCC2)n1Cc1ccccc1 | 1200 s |
| Cc1cccn2cc(-c3cccc(NS(=O)(=O)c4ccc(Cl)c(Cl)c4)c3)nc12 | 747 s |
| COc1ccccc1NC(=O)Cn1cccc1-c1nnc(-c2ccccc2)o1 | 1020 s |
| CCc1ccccc1NS(=O)(=O)c1ccc2c(c1)C(=O)N(CC)c1ncccc1O2 | 1050 s |
| O=C(N[C@H]1C[C@@H]2C[C@H]1CN2S(=O)(=O)c1ccc2c(c1)CCC2)c1ccccc1 | 933 s |
| CCN1C(=O)C2(CCN(S(=O)(=O)c3ccc4c(c3)CCC4)CC2)c2ccccc21 | 1170 s |
| COc1ccc(C(=O)Nc2nc(CC(=O)Nc3ccc4c(c3)OCCO4)cs2)cc1 | 754 s |
| O=C(NC1CCCCCC1)C1CCCN(C(=O)c2cccc(C(F)(F)F)c2)C1 (stereo not given) | 948 s |
| CCc1nc(-c2csc(S(=O)(=O)N3CCCC(C(=O)NC4CCCCC4)C3)c2)no1 (stereo not given) | 1020 s |
| Cc1oc(-c2ccc(NC(=O)CC3CCCCC3)cc2)nc1Cn1cccn1 | 966 s |
| O=C(NCc1ccc(Cl)cc1)c1ccc(NC(=O)C2CC2)cc1N1CCOCC1 | 843 s |
| CCc1cc(-c2csc(S(=O)(=O)NCC3CCN(Cc4ccc(Cl)cc4)CC3)c2)on1 | 739 s |
| Cc1cc(C)cc(NC(=O)Nc2nccn(-c3ccc(Br)cc3)c2=O)c1 | 1130 s |
| CCCn1ccc2sc(C)c(C(=O)NCc3cccc(OC)c3)c2c1=O | 856 s |
| O=C(CCCN1C(=O)c2cccc3cccc(c23)C1=O)Nc1cccnc1 | 571 s |
| CCN1CCN(c2cc(C)c3cc(NC(=O)CC4CCCC4)ccc3n2)CC1 | 595 s |
| O=C(c1cc(O)c(O)c([N+](=O)[O-])c1)c1ccccc1F | 716 s |
| Cc1ccsc1C(=O)N1CCC(c2nc(CCOCC3CC3)no2)C1 (stereo not given) | 812 s |
| O=C(NCCCN1CCOCC1)C(=O)Nc1ccc(Br)cc1F | 625 s |
| CC(C)CC(=O)NCC12CCCC=C1N(C)C(=O)CC2 (stereo not given) | 726 s |
